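How tested: cells in 96-well plates exposed to compound for 48 hours at five concentrations. TGI: concentration producing complete growth inhibition.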
Legend:
Experiment in all cases: NCI-60 cell line screen, 48 h
NCI-H226 lung = test system: NCI-H226 lung
K-562 leukemia = test system: K-562 leukemia
SF-268 CNS = test system: SF-268 CNS
CCRF-CEM leukemia = test system: CCRF-CEM leukemia
SNB-19 CNS = test system: SNB-19 CNS
SK-MEL-2 melanoma = test system: SK-MEL-2 melanoma
UACC-62 melanoma = test system: UACC-62 melanoma
OVCAR-8 ovarian = test system: OVCAR-8 ovarian
RXF 393 renal = test system: RXF 393 renal
SF-539 CNS = test system: SF-539 CNS
786-0 renal = test system: 786-0 renal
OVCAR-3 ovarian = test system: OVCAR-3 ovarian
RPMI-8226 leukemia = test system: RPMI-8226 leukemia
KM12 colon = test system: KM12 colon
MCF7 breast = test system: MCF7 breast
BT-549 breast = test system: BT-549 breast
HL-60(TB) leukemia = test system: HL-60(TB) leukemia
MDA-N = test system: MDA-N
HOP-92 NSCLC = test system: HOP-92 NSCLC
COLO 205 colon = test system: COLO 205 colon
U251 CNS = test system: U251 CNS
MDA-MB-435 = test system: MDA-MB-435
CAKI-1 renal = test system: CAKI-1 renal
SN12C renal = test system: SN12C renal
HCT-15 colon = test system: HCT-15 colon
NCI/ADR-RES ovarian = test system: NCI/ADR-RES ovarian
SF-295 CNS = test system: SF-295 CNS
IGROV1 ovarian = test system: IGROV1 ovarian
NCI-H460 lung = test system: NCI-H460 lung
UACC-257 melanoma = test system: UACC-257 melanoma
HOP-62 NSCLC = test system: HOP-62 NSCLC
MDA-MB-231 breast = test system: MDA-MB-231 breast
SW-620 colon = test system: SW-620 colon
PC-3 prostate = test system: PC-3 prostate
EKVX NSCLC = test system: EKVX NSCLC
DU-145 prostate = test system: DU-145 prostate
T-47D breast = test system: T-47D breast
NCI-H522 lung = test system: NCI-H522 lung
M14 melanoma = test system: M14 melanoma
A498 renal = test system: A498 renal
HT29 colon = test system: HT29 colon
SNB-75 CNS = test system: SNB-75 CNS
OVCAR-4 ovarian = test system: OVCAR-4 ovarian
TK-10 renal = test system: TK-10 renal
SK-MEL-28 melanoma = test system: SK-MEL-28 melanoma
SK-OV-3 ovarian = test system: SK-OV-3 ovarian
NCI-H23 lung = test system: NCI-H23 lung
LOX IMVI melanoma = test system: LOX IMVI melanoma
SR leukemia = test system: SR leukemia
UO-31 renal = test system: UO-31 renal
A549 NSCLC = test system: A549 NSCLC
HCC-2998 colon = test system: HCC-2998 colon
MALME-3M melanoma = test system: MALME-3M melanoma
MOLT-4 leukemia = test system: MOLT-4 leukemia
HS 578T breast = test system: HS 578T breast
OVCAR-5 ovarian = test system: OVCAR-5 ovarian
SK-MEL-5 melanoma = test system: SK-MEL-5 melanoma
HCT-116 colon = test system: HCT-116 colon
ACHN renal = test system: ACHN renal

Measured: TGI

Cn1c([N+](=O)[O-])cnc1CN1CCN(CCO)CC1
> 100 µM: NCI-H226 lung | K-562 leukemia | SF-268 CNS | CCRF-CEM leukemia | SNB-19 CNS | SK-MEL-2 melanoma | UACC-62 melanoma | OVCAR-8 ovarian | RXF 393 renal | SF-539 CNS | 786-0 renal | OVCAR-3 ovarian | RPMI-8226 leukemia | KM12 colon | MCF7 breast | BT-549 breast | HL-60(TB) leukemia | MDA-N | HOP-92 NSCLC | COLO 205 colon | U251 CNS | MDA-MB-435 | CAKI-1 renal | SN12C renal | HCT-15 colon | NCI/ADR-RES ovarian | SF-295 CNS | IGROV1 ovarian | NCI-H460 lung | UACC-257 melanoma | HOP-62 NSCLC | MDA-MB-231 breast | SW-620 colon | PC-3 prostate | EKVX NSCLC | DU-145 prostate | T-47D breast | NCI-H522 lung | M14 melanoma | A498 renal | HT29 colon | SNB-75 CNS | OVCAR-4 ovarian | TK-10 renal | SK-MEL-28 melanoma | SK-OV-3 ovarian | NCI-H23 lung | LOX IMVI melanoma | SR leukemia | UO-31 renal | A549 NSCLC | HCC-2998 colon | MALME-3M melanoma | MOLT-4 leukemia | HS 578T breast | OVCAR-5 ovarian | SK-MEL-5 melanoma | HCT-116 colon | ACHN renal

C[C@H](CCC(=O)O)[C@H]1CC[C@H]2[C@@H]3[C@@H](O)C[C@@H]4C[C@H](O)CC[C@]4(C)[C@H]3CC[C@]12C
> 100 µM: NCI-H226 lung | K-562 leukemia | SF-268 CNS | CCRF-CEM leukemia | SNB-19 CNS | SK-MEL-2 melanoma | UACC-62 melanoma | OVCAR-8 ovarian | RXF 393 renal | SF-539 CNS | 786-0 renal | OVCAR-3 ovarian | RPMI-8226 leukemia | KM12 colon | MCF7 breast | BT-549 breast | HL-60(TB) leukemia | MDA-N | HOP-92 NSCLC | COLO 205 colon | U251 CNS | MDA-MB-435 | CAKI-1 renal | SN12C renal | HCT-15 colon | NCI/ADR-RES ovarian | SF-295 CNS | IGROV1 ovarian | NCI-H460 lung | UACC-257 melanoma | HOP-62 NSCLC | MDA-MB-231 breast | SW-620 colon | PC-3 prostate | EKVX NSCLC | DU-145 prostate | T-47D breast | NCI-H522 lung | M14 melanoma | A498 renal | HT29 colon | SNB-75 CNS | OVCAR-4 ovarian | TK-10 renal | SK-MEL-28 melanoma | SK-OV-3 ovarian | NCI-H23 lung | LOX IMVI melanoma | SR leukemia | UO-31 renal | A549 NSCLC | HCC-2998 colon | MALME-3M melanoma | MOLT-4 leukemia | HS 578T breast | OVCAR-5 ovarian | SK-MEL-5 melanoma | HCT-116 colon | ACHN renal

— PubChem BioAssay (NCI)
